Converted amounts (≈) assume the structure as drawn.

Broadly, the MIC is the lowest concentration that inhibits growth of the organism. A high value points to a less susceptible organism.

Format in all cases: functional
For one assay, the system named is Bacillus subtilis. In words: Antibacterial activity against Bacillus subtilis NCIM 2063 by broth dilution method. (In general: Dilution methods test growth across graded concentrations, often in twofold steps.)
The next assay deals with Escherichia coli. In words: Antibacterial activity against Escherichia coli NCIM 2256 by broth dilution method.
The subject of a further assay is Staphylococcus aureus. The assay is described as follows: Antibacterial activity against Staphylococcus aureus NCIM 2901 by broth dilution method.
The test system of the next assay is Candida albicans. In words: Antifungal activity against Candida albicans by broth dilution method.
The next assay deals with Aspergillus flavus. In words: Antifungal activity against Aspergillus flavus by broth dilution method.
The next assay has as its system Aspergillus niger. The assay is described as follows: Antifungal activity against Aspergillus niger by broth dilution method.

For `CCOC(=O)c1sc(NC(=O)CN2CCC(Cc3ccccc3)CC2)nc1C`, the MIC worked out at 35 µg/mL (≈ 87.2 µM) in the assay with Bacillus subtilis; 50 µg/mL (≈ 125 µM) with Escherichia coli; 70 µg/mL (≈ 174 µM) in the assay with Staphylococcus aureus; 75 µg/mL (≈ 187 µM) against Candida albicans; 50 µg/mL (≈ 125 µM) against Aspergillus flavus; 50 µg/mL (≈ 125 µM) in the assay with Aspergillus niger.

As to `CCOC(=O)c1sc(NC(=O)CN2CCC(c3ccccc3)CC2)nc1C`, the MIC in the assay with Bacillus subtilis worked out at 28 µg/mL (≈ 72.3 µM); with Escherichia coli, 29 µg/mL (≈ 74.8 µM); in the assay with Staphylococcus aureus, 30 µg/mL (≈ 77.4 µM); in the assay with Candida albicans, 25 µg/mL (≈ 64.5 µM); in the assay on Aspergillus flavus, 12.5 µg/mL (≈ 32.3 µM); in the assay with Aspergillus niger, 25 µg/mL (≈ 64.5 µM).

Regarding `CCOC(=O)c1cnc(NC(=O)CN2CCC(Cc3ccccc3)CC2)s1`, the MIC with Bacillus subtilis amounted to 29 µg/mL (≈ 74.8 µM); against Escherichia coli, 29 µg/mL (≈ 74.8 µM); against Staphylococcus aureus, 28 µg/mL (≈ 72.3 µM); in the assay with Candida albicans it was 25 µg/mL (≈ 64.5 µM); with Aspergillus flavus, 12.5 µg/mL (≈ 32.3 µM); in the assay with Aspergillus niger, 12.5 µg/mL (≈ 32.3 µM).

Turning to `Clc1ccc(COC(Cn2ccnc2)c2ccc(Cl)cc2Cl)c(Cl)c1` (stereo unspecified) [MICONAZOLE], the MIC in the assay with Candida albicans, in the assay on Aspergillus flavus and against Aspergillus niger was 12.5 µg/mL (≈ 30 µM) each time.

Consider `CCOC(=O)c1sc(NC(=O)CN2CCC(C)CC2)nc1C`, for which the MIC was 35 µg/mL (≈ 108 µM) against Bacillus subtilis; 50 µg/mL (≈ 154 µM) in the assay with Escherichia coli; 70 µg/mL (≈ 215 µM) with Staphylococcus aureus; 75 µg/mL (≈ 230 µM) in the assay on Candida albicans; 50 µg/mL (≈ 154 µM) against Aspergillus flavus; 50 µg/mL (≈ 154 µM) against Aspergillus niger.

Consider `CC(=O)c1sc(NC(=O)CN2CCC(Cc3ccccc3)CC2)nc1C`, for which the minimum inhibitory concentration (MIC) against Bacillus subtilis is 35 µg/mL (≈ 94.2 µM); against Escherichia coli, 60 µg/mL (≈ 162 µM); against Staphylococcus aureus, 50 µg/mL (≈ 135 µM); in the assay on Candida albicans, 100 µg/mL (≈ 269 µM); in the assay with Aspergillus flavus, 50 µg/mL (≈ 135 µM); against Aspergillus niger it was 50 µg/mL (≈ 135 µM).

In the case of `Cc1csc(NC(=O)CN2CCC(Cc3ccccc3)CC2)n1`, the MIC was found to be 35 µg/mL (≈ 106 µM) in the assay with Bacillus subtilis; 50 µg/mL (≈ 152 µM) in the assay on Escherichia coli; 70 µg/mL (≈ 212 µM) with Staphylococcus aureus; 75 µg/mL (≈ 228 µM) against Candida albicans; 50 µg/mL (≈ 152 µM) against Aspergillus flavus; 50 µg/mL (≈ 152 µM) against Aspergillus niger.

Consider `OC(Cn1cncn1)(Cn1cncn1)c1ccc(F)cc1F` [FLUCONAZOLE], for which the MIC in the assay on Candida albicans worked out at 40 µg/mL (≈ 131 µM); against Aspergillus flavus, 25 µg/mL (≈ 81.6 µM); with Aspergillus niger, 25 µg/mL (≈ 81.6 µM).

In the case of `CCOC(=O)c1sc(NC(=O)CN2CCC(Cc3ccccc3)CC2)nc1-c1ccccc1`, the MIC in the assay on Bacillus subtilis is 25 µg/mL (≈ 53.9 µM); against Escherichia coli it was 29 µg/mL (≈ 62.6 µM); with Staphylococcus aureus, 28 µg/mL (≈ 60.4 µM); in the assay on Candida albicans, 50 µg/mL (≈ 108 µM); against Aspergillus flavus, 25 µg/mL (≈ 53.9 µM); against Aspergillus niger it was 25 µg/mL (≈ 53.9 µM).

For the compound `Cc1nc(NC(=O)CN2CCC(Cc3ccccc3)CC2)sc1C`, the MIC against Bacillus subtilis is 28 µg/mL (≈ 81.5 µM); against Escherichia coli, 29 µg/mL (≈ 84.4 µM); with Staphylococcus aureus, 30 µg/mL (≈ 87.3 µM); in the assay on Candida albicans it was 25 µg/mL (≈ 72.8 µM); in the assay on Aspergillus flavus it was 12.5 µg/mL (≈ 36.4 µM); against Aspergillus niger, 12.5 µg/mL (≈ 36.4 µM).

Take `C[C@H]1COc2c(N3CCN(C)CC3)c(F)cc3c(=O)c(C(=O)O)cn1c23.C[C@H]1COc2c(N3CCN(C)CC3)c(F)cc3c(=O)c(C(=O)O)cn1c23.O` [LEVOFLOXACIN]: the minimal inhibitory concentration (MIC) against Bacillus subtilis is 29 µg/mL; against Escherichia coli, 29 µg/mL; against Staphylococcus aureus, 28 µg/mL.

For `CCOC(=O)c1sc(NC(=O)CN2CCCCC2)nc1C`, the MIC against Bacillus subtilis came out at 45 µg/mL (≈ 145 µM); in the assay with Escherichia coli it was 60 µg/mL (≈ 193 µM); in the assay with Staphylococcus aureus, 100 µg/mL (≈ 321 µM); against Candida albicans, 75 µg/mL (≈ 241 µM); in the assay on Aspergillus flavus, 100 µg/mL (≈ 321 µM); with Aspergillus niger, 100 µg/mL (≈ 321 µM).

Turning to `CCOC(=O)c1sc(NC(=O)CN2CCC(Cc3ccccc3)CC2)nc1CC`, the MIC in the assay on Bacillus subtilis came to 40 µg/mL (≈ 96.3 µM); in the assay with Escherichia coli, 100 µg/mL (≈ 241 µM); with Staphylococcus aureus it was 100 µg/mL (≈ 241 µM); against Candida albicans it was 75 µg/mL (≈ 180 µM); with Aspergillus flavus, 100 µg/mL (≈ 241 µM); against Aspergillus niger it was 100 µg/mL (≈ 241 µM).

For the compound `COC(=O)c1cnc(NC(=O)CN2CCC(Cc3ccccc3)CC2)s1`, the MIC came out at 35 µg/mL (≈ 93.7 µM) with Bacillus subtilis; 60 µg/mL (≈ 161 µM) against Escherichia coli; 50 µg/mL (≈ 134 µM) in the assay on Staphylococcus aureus; 100 µg/mL (≈ 268 µM) with Candida albicans; 50 µg/mL (≈ 134 µM) against Aspergillus flavus; 50 µg/mL (≈ 134 µM) against Aspergillus niger.

As to `COC(=O)c1sc(NC(=O)CN2CCC(Cc3ccccc3)CC2)nc1C1CC1`, the MIC in the assay with Bacillus subtilis was 29 µg/mL (≈ 70.1 µM); in the assay on Escherichia coli it was 29 µg/mL (≈ 70.1 µM); against Staphylococcus aureus, 28 µg/mL (≈ 67.7 µM); with Candida albicans it was 25 µg/mL (≈ 60.5 µM); with Aspergillus flavus, 12.5 µg/mL (≈ 30.2 µM); against Aspergillus niger, 12.5 µg/mL (≈ 30.2 µM).

The values are drawn from ChEMBL document CHEMBL3822408, “Synthesis and antimicrobial evaluation of novel ethyl 2-(2-(4-substituted)acetamido)-4-subtituted-thiazole-5-carboxylate derivatives” (2016).
